Source: patent US8507509B2, “Saturated and insaturated bi- or tricyclic aryloxyacetamine derivatives and their use as fungicides” (Syngenta Crop Protection LLC, priority 2007, dated 2013)

Legend:
Plasmopara viticola = Plasmopara viticola (downy mildew of grapevine), grapevine leaf disk assay, preventive; assay type: in vivo; conditions: foliar, 168 h, 200 ppm, grapevine leaf disks, assessed seven days after inoculation, read-out: control of fungal infection, Plasmopara viticola
Botrytis cinerea = Botrytis cinerea (grey mould), bean leaf disk assay, preventive; assay type: in vivo; conditions: foliar, 96 h, 200 ppm, bean leaf disks, assessed four days after inoculation, read-out: control of fungal infection, Botrytis cinerea
Septoria tritici = Septoria tritici (leaf blotch), liquid culture growth inhibition in nutrient broth; assay type: cell-based; conditions: Zymoseptoria tritici; 200 ppm; PDB broth, 24 C; inhibition of growth determined photometrically after 72 hrs; read-out: control of fungal infection, Septoria tritici
Phytophthora infestans = test: whole plant or invertebrate; assay type: in vivo; conditions: in Solanum lycopersicum, foliar, 96 h, read-out: control of fungal infection, Phytophthora infestans
[1] = test system: Erysiphe graminis f.sp. tritici; test: Erysiphe graminis f.sp. tritici (wheat powdery mildew), wheat leaf segment assay, preventive; assay type: in vivo; conditions: Blumeria graminis, foliar, 96 h; 200 ppm; wheat leaf segments; assessed four days after inoculation; read-out: control of fungal infection, Etysiphe graminis f.sp. tritici
Septoria nodorum = Septoria nodorum (wheat glume blotch), wheat leaf segment assay, preventive; assay type: in vivo; conditions: Parastagonospora nodorum, foliar, 96 h; 200 ppm; wheat leaf segments; assessed four days after inoculation; read-out: control of fungal infection, Septoria nodorum
Fusarium culmorum = Fusarium culmorum (root rot), liquid culture growth inhibition in nutrient broth; assay type: cell-based; conditions: PDB broth, 24 C, inhibition of growth determined photometrically after 48 hrs, read-out: control of fungal infection, Fusarium culmorum
Protocol: Mycelia fragments or conidia suspensions of a fungus, prepared either freshly from liquid cultures of the fungus or from cryogenic storage, are directly mixed into nutrient broth. DMSO solutions of the test compound (max. 10 mg/ml) is diluted with 0.025% Tween20 by factor 50 and 10 μl of this solution is pipetted into a microtiter plate (96-well format) and the nutrient broth containing the fungal spores/mycelia fragments is then added to give an end concentration of the tested compound. The test plates are incubated at 24° C. and 96% rH in the dark. The inhibition of fungal growth is determined photometrically after 2-6 days and antifungal activity is calculated.
Fusarium culmorum (root rot): Conidia of the fungus from cryogenic storage were directly mixed into nutrient broth (PDB potato dextrose broth). After placing a (DMSO) solution of the test compounds into a microtiter plate (96-well format) the nutrient broth containing the fungal spores was added. The test plates were incubated at 24 C and the inhibition of growth was determined photometrically after 48 hrs.

Pythium ultimum = Pythium ultimum (Damping off), liquid culture growth inhibition in potato dextrose broth; assay type: cell-based; conditions: Globisporangium ultimum; 20 ppm; potato dextrose broth, 24° C.; inhibition of growth determined photometrically after 48 hours; read-out: control of fungal infection, Pythium ultimum

C=CCON=CCC(C)(C)NC(=O)C(Oc1cc(C)c2ncc(I)cc2c1)SC (stereo not drawn) [Compound No. 40, N-(3-Allyloxyimino-1,1-dimethyl-propyl)-2-(3-iodo-8-methyl-quinolin-6-yloxy)-2-methylsulfanyl-acetamide]
≥ 60%: pest or weed control at 200 ppm (Plasmopara viticola) | pest or weed control at 200 ppm (Botrytis cinerea) | inhibition of growth at 200 ppm (Septoria tritici)

CON=CC(C)(C)NC(=O)C(Oc1cc(Cl)c2ncc(I)cc2c1)SC (stereo not drawn) [Compound No. 106, 2-(8-Chloro-3-iodo-quinolin-6-yloxy)-N-(2-methoxyimino-1,1-dimethyl-ethyl)-2-methylsulfanyl-acetamide]
≥ 60%: pest or weed control at 200 ppm (Plasmopara viticola) | pest or weed control at 200 ppm (Botrytis cinerea) | inhibition of growth at 200 ppm (Septoria tritici)

CON=C(Cc1ccccc1)C(C)(C)NC(=O)C(Oc1ccc2ncc(Br)cc2c1)SC (stereo not drawn) [Compound No. 121, 2-(3-Bromo-quinolin-6-yloxy)-N-{2-[(E or Z)-methoxyimino]-1,1-dimethyl-3-phenyl-propyl}-2-methylsulfanyl-acetamide]
≥ 60%: pest or weed control at 200 ppm (Plasmopara viticola) | pest or weed control at 200 ppm (Botrytis cinerea) | inhibition of growth at 200 ppm (Septoria tritici)

C#Cc1cnc2c(C)cc(OC(SC)C(=O)NC(C)(C)C=NOCC=C)cc2c1 (stereo not drawn) [Compound No. 114, N-(2-Allyloxyimino-1,1-dimethyl-ethyl)-2-(3-Ethynyl-8-methyl-quinolin-6-yloxy)-2-methylsulfanyl-acetamide]
≥ 60%: pest or weed control at 200 ppm (Plasmopara viticola) | pest or weed control at 200 ppm (Phytophthora infestans) | pest or weed control at 200 ppm [1] | pest or weed control at 200 ppm (Septoria nodorum) | inhibition of growth at 200 ppm (Fusarium culmorum)

C=CCON=CC(C)(C)NC(=O)C(Oc1ccc2ncc(I)cc2c1)SC (stereo not drawn) [Compound No. 52, N-(2-Allyloxyimino-1,1-dimethyl-ethyl)-2-(3-iodo-quinolin-6-yloxy)-2-methylsulfanyl-acetamide]
≥ 60%: pest or weed control at 200 ppm (Plasmopara viticola) | pest or weed control at 200 ppm (Phytophthora infestans) | inhibition of growth at 200 ppm (Fusarium culmorum) | inhibition of growth at 20 ppm (Pythium ultimum)

CCON=C(Cc1ccccc1)C(C)(C)NC(=O)C(Oc1ccc2ncc(Br)cc2c1)SC (stereo not drawn) [Compound No. 122, 2-(3-Bromo-quinolin-6-yloxy)-N-{2-[(E or Z)-ethoxyimino]-1,1-dimethyl-3-phenyl-propyl}-2-methylsulfanyl-acetamide]
≥ 60%: pest or weed control at 200 ppm (Plasmopara viticola) | pest or weed control at 200 ppm (Botrytis cinerea) | inhibition of growth at 200 ppm (Septoria tritici)

CON=CC(C)(C)NC(=O)C(Oc1cc(Cl)c2sccc2c1)SC (stereo not drawn) [Compound No. 83, 2-(7-Chloro-benzo[b]thiophen-5-yloxy)-N-(2-methoxyimino-1,1-dimethyl-ethyl)-2-methylsulfanyl-acetamide]
≥ 60%: pest or weed control at 200 ppm (Plasmopara viticola) | pest or weed control at 200 ppm (Botrytis cinerea) | inhibition of growth at 200 ppm (Septoria tritici)

C#Cc1cnc2c(C)cc(OC(SC)C(=O)NC(C)(C)C=NOCC)cc2c1 (stereo not drawn) [Compound No. 113, N-(2-Ethoxyimino-1,1-dimethyl-ethyl)-2-(3-Ethynyl-8-methyl-quinolin-6-yloxy)-2-methylsulfanyl-acetamide]
≥ 60%: pest or weed control at 200 ppm (Plasmopara viticola) | pest or weed control at 200 ppm (Phytophthora infestans) | pest or weed control at 200 ppm (Septoria nodorum) | inhibition of growth at 200 ppm (Fusarium culmorum) | inhibition of growth at 20 ppm (Pythium ultimum)

CON=CC(C)(C)NC(=O)C(Oc1cc(C)c2ncc(Br)cc2c1)SC (stereo not drawn) [Compound No. 26, 2-(3-Bromo-8-methyl-quinolin-6-yloxy)-N-(2-methoxyimino-1,1-dimethyl-ethyl)-2-methylsulfanyl-acetamide]
≥ 60%: pest or weed control at 200 ppm (Phytophthora infestans) | pest or weed control at 200 ppm [1] | pest or weed control at 200 ppm (Septoria nodorum) | inhibition of growth at 200 ppm (Septoria tritici) | inhibition of growth at 200 ppm (Fusarium culmorum)

CON=CC(C)(C)NC(=O)C(Oc1cc(C)c2sccc2c1)SC (stereo not drawn) [Compound No. 84, N-(2-methoxyimino-1,1-dimethyl-ethyl)-2-(7-methyl-benzo[b]thiophen-5-yloxy)-2-methylsulfanyl-acetamide]
≥ 60%: pest or weed control at 200 ppm (Plasmopara viticola) | pest or weed control at 200 ppm (Botrytis cinerea) | inhibition of growth at 200 ppm (Septoria tritici)

C=CCON=C(Cc1ccccn1)C(C)(C)NC(=O)C(Oc1ccc2ncc(Br)cc2c1)SC (stereo not drawn) [Compound No. 129, N-{2-[(E or Z)-Allyloxyimino]-1,1-dimethyl-3-pyridin-2-yl-propyl}-2-(3-bromo-quinolin-6-yloxy)-2-methylsulfanyl-acetamide]
≥ 60%: pest or weed control at 200 ppm (Botrytis cinerea) | inhibition of growth at 200 ppm (Septoria tritici)

CCON=CC(C)(C)NC(=O)C(Oc1cc(Br)c2ncc(Br)cc2c1)SC (stereo not drawn) [Compound No. 33, 2-(3,8-Dibromo-quinolin-6-yloxy)-N-(2-ethoxyimino-1,1-dimethyl-ethyl)-2-methylsulfanyl-acetamide]
≥ 60%: pest or weed control at 200 ppm (Plasmopara viticola) | pest or weed control at 200 ppm (Botrytis cinerea) | inhibition of growth at 200 ppm (Septoria tritici)

C#CCON=CC(C)(C)NC(=O)C(Oc1cc(C)c2ncc(Br)cc2c1)SC (stereo not drawn) [Compound No. 29, 2-(3-Bromo-8-methyl-quinolin-6-yloxy)-N-(1,1-dimethyl-2-prop-2-ynyloxyimino-ethyl)-2-methylsulfanyl-acetamide]
≥ 60%: pest or weed control at 200 ppm (Plasmopara viticola) | pest or weed control at 200 ppm (Phytophthora infestans) | pest or weed control at 200 ppm [1] | pest or weed control at 200 ppm (Septoria nodorum) | inhibition of growth at 200 ppm (Fusarium culmorum) | inhibition of growth at 20 ppm (Pythium ultimum)

CSC(Oc1ccc2ncc(I)cc2c1)C(=O)NC(C)(C)C=NO (stereo not drawn) [Compound No. 153, N-(2-Hydroxyimino-1,1-dimethyl-ethyl)-2-(3-iodo-quinolin-6-yloxy)-2-methylsulfanyl-acetamide]
≥ 60%: pest or weed control at 200 ppm (Plasmopara viticola) | pest or weed control at 200 ppm (Phytophthora infestans) | pest or weed control at 200 ppm [1] | inhibition of growth at 200 ppm (Septoria tritici) | inhibition of growth at 200 ppm (Fusarium culmorum) | inhibition of growth at 20 ppm (Pythium ultimum)

CCCCON=CCC(C)(C)NC(=O)C(Oc1cc(C)c2ncc(I)cc2c1)SC (stereo not drawn) [Compound No. 39, N-(3-Butoxyimino-1,1-dimethyl-propyl)-2-(3-iodo-8-methyl-quinolin-6-yloxy)-2-methylsulfanylacetamide]
≥ 60%: pest or weed control at 200 ppm (Botrytis cinerea) | inhibition of growth at 200 ppm (Septoria tritici)

CON=CCC(C)NC(=O)C(Oc1cc(C)c2ncc(I)cc2c1)SC (stereo not drawn) [Compound No. 105, 2-(3-Iodo-8-methyl-quinolin-6-yloxy)-N-(3-methoxyimino-1-methyl-propyl)-2-methylsulfanyl-acetamide]
≥ 60%: pest or weed control at 200 ppm [1] | inhibition of growth at 200 ppm (Septoria tritici) | inhibition of growth at 200 ppm (Fusarium culmorum) | inhibition of growth at 20 ppm (Pythium ultimum)

C#Cc1cnc2c(Cl)cc(OC(SC)C(=O)NC(C)(C)C=NOC)cc2c1 (stereo not drawn) [Compound No. 115, 2-(8-Chloro-3-ethynyl-quinolin-6-yloxy)-N-(2-methoxyimino-1,1-dimethyl-ethyl)-2-methylsulfanyl-acetamide]
≥ 60%: pest or weed control at 200 ppm (Plasmopara viticola) | pest or weed control at 200 ppm (Phytophthora infestans) | pest or weed control at 200 ppm [1] | pest or weed control at 200 ppm (Septoria nodorum) | inhibition of growth at 200 ppm (Fusarium culmorum) | inhibition of growth at 20 ppm (Pythium ultimum)

CON=CC(C)(C)NC(=O)C(Oc1cc(C)c2ccc(Br)cc2c1)SC (stereo not drawn) [Compound No. 85, 2-(7-bromo-4-methyl-naphthalen-2-yloxy)-N-(2-methoxyimino-1,1-dimethyl-ethyl)-2-methylsulfanyl-acetamide]
≥ 60%: pest or weed control at 200 ppm [1] | pest or weed control at 200 ppm (Botrytis cinerea) | inhibition of growth at 200 ppm (Septoria tritici)

C#Cc1cnc2c(C)cc(OC(SC)C(=O)NC(C)(C)C=NOC)cc2c1 (stereo not drawn) [Compound No. 112, 2-(3-Ethynyl-8-methyl-quinolin-6-yloxy)-N-(2-methoxyimino-1,1-dimethyl-ethyl)-2-methylsulfanyl-acetamide]
≥ 60%: pest or weed control at 200 ppm (Plasmopara viticola) | pest or weed control at 200 ppm (Phytophthora infestans) | pest or weed control at 200 ppm (Septoria nodorum) | inhibition of growth at 200 ppm (Fusarium culmorum) | inhibition of growth at 20 ppm (Pythium ultimum)

CON=CCC(C)NC(=O)C(Oc1ccc2ncc(I)cc2c1)SC (stereo not drawn) [Compound No. 48, 2-(3-Iodo-quinolin-6-yloxy)-N-(3-methoxyimino-1-methyl-propyl)-2-methylsulfanyl-acetamide]
≥ 60%: pest or weed control at 200 ppm [1] | pest or weed control at 200 ppm (Septoria nodorum) | inhibition of growth at 200 ppm (Septoria tritici) | inhibition of growth at 200 ppm (Fusarium culmorum)

CSC(Oc1cc(C)c2ncc(Br)cc2c1)C(=O)NC(C)(C)C=NOc1ccccc1 (stereo not drawn) [Compound No. 23, 2-(3-Bromo-8-methyl-quinolin-6-yloxy)-N-(1,1-dimethyl-2-phenoxyimino-ethyl)-2-methylsulfanyl-acetamide]
≥ 60%: pest or weed control at 200 ppm (Plasmopara viticola) | pest or weed control at 200 ppm (Phytophthora infestans) | pest or weed control at 200 ppm [1] | pest or weed control at 200 ppm (Septoria nodorum) | inhibition of growth at 200 ppm (Fusarium culmorum) | inhibition of growth at 20 ppm (Pythium ultimum)
